The source of these data is ChEMBL document CHEMBL1147442, “Epimerisation of lutein to 3'-epilutein in processed foods” (2004).

Assay type in all cases: functional
For assay [1], the system named is Rubus. The assay can be described thus: Ratio in botteled blackberries was determined.
A further assay has as its system Anethum graveolens. The experiment in a line: Ratio in pickled dill was determined.
Assay [2] has as its system Capsicum. The experiment in a line: Ratio in baked paprika was determined.
Assay [3] deals with Capsicum. The assay can be described thus: Ratio in pickled paprika was determined.
For assay [4], the system named is Prunus domestica. The assay can be described thus: Ratio in bottled plum was determined.
Assay [5] relates to Rumex acetosa. The experiment in a line: Ratio in boiled sorrel was determined.
The test system of assay [6] is Rumex acetosa. The assay can be described thus: Ratio in microwaved sorrel was determined.
Assay [7] deals with Rumex acetosa. The experiment in a line: Ratio in steamed sorrel was determined.
Assay [8] concerns Rumex acetosa. The assay can be described thus: Ratio in stewed sorrel was determined.
The test system of assay [9] is Rubus. The experiment in a line: Ratio in raw blackberries was determined.
The test system of assay [10] is Capsicum. The experiment in a line: Ratio in raw paprika was determined.
The test system of assay [11] is Prunus domestica. The experiment in a line: Ratio in raw plum was determined.
Assay [12] relates to Rumex acetosa. The assay can be described thus: Ratio in raw sorrel was determined.

For `C=C1C=CCC(C)(C)[C@H]1/C=C/C(C)=C/C=C/C(C)=C/C=C/C=C(C)/C=C/C=C(C)/C=C/C1=C(C)C[C@@H](O)CC1(C)C`, the Ratio in the assay on Rubus [1] was 7.9%; in the assay with Anethum graveolens, 3%; with Capsicum [2], 5.1%; in the assay with Capsicum [3] it was 2.2%; in the assay on Prunus domestica [4] it was 4.7%; in the assay on Rumex acetosa [5], 6.5%. Besides, the figures for the Ratio in the assay with Rumex acetosa [6], in the assay on Rumex acetosa [7] and with Rumex acetosa [8] were 5%, 11.3% and 8%, respectively.
`CC1=C[C@@H](O)CC(C)(C)[C@H]1/C=C/C(C)=C/C=C/C(C)=C/C=C/C=C(C)/C=C/C=C(C)/C=C/C1=C(C)C[C@@H](O)CC1(C)C`: the Ratio was found to be 17.4% with Rubus [1]; 13.8% in the assay with Anethum graveolens; 3.8% with Capsicum [2]; 12.5% in the assay with Capsicum [3]; 7% in the assay with Prunus domestica [4]; 9% with Rumex acetosa [5]. Also, the Ratio in the assay with Rumex acetosa [6] is on record as 6.4%; in the assay on Rumex acetosa [7], 9.2%; with Rumex acetosa [8] it was 8.8%.
`CC1=C[C@H](O)CC(C)(C)[C@H]1/C=C/C(C)=C/C=C/C(C)=C/C=C/C=C(C)/C=C/C=C(C)/C=C/C1=C(C)C[C@@H](O)CC1(C)C` [LUTEIN]: the Ratio in the assay with Rubus [1] is given as 37.4%; in the assay with Rubus [9], 58.6%; in the assay with Anethum graveolens it was 28.7%; in the assay with Capsicum [2] it was 47.5%; in the assay on Capsicum [3], 49.2%; with Capsicum [10] it was 53.5%. For the same molecule, the Ratio in the assay on Prunus domestica [4] is recorded as 29.3%; in the assay with Prunus domestica [11], 34.2%; in the assay with Rumex acetosa [5], 28.6%; with Rumex acetosa [6], 24%; with Rumex acetosa [12] it was 36%; in the assay on Rumex acetosa [7], 12.7%. The Ratio with Rumex acetosa [8] came to 16.4%.
